The text below walks through data of ChEMBL document CHEMBL1681747, “Novel second generation analogs of eribulin. Part II: Orally available and active against resistant tumors in vivo” (Bioorg Med Chem Lett, 2011).

Molecules are shown by their SMILES.

The subject of one assay is HCT-15. Kind of assay: Cytotoxicity against human HCT15 cells. In kind it is functional, cell-based.
Assay [1] can be described thus: Cytotoxicity against human MES-SA cells. The assay is classed as functional, cell-based.
Assay [2] in a line: Cytotoxicity against human MES-SA/Dx5-Rx1 cells. In kind it is functional, cell-based.
Another assay concerns MES-SA. Kind of assay: Fold resistant ratio of IC50 for MES-SA/Dx5-Rx1 cells to IC50 for human MES-SA cells.
For the next assay, the system named is DLD-1. Kind of assay: Cytotoxicity against human DLD1 cells. In kind it is functional, cell-based.

A word on the IC50: it is the concentration that inhibits the measured activity by half. The low end stands for greater potency in that assay, the high end for weaker potency in that assay.

Regarding `C=C1C[C@@H]2CC[C@@]34C[C@H]5O[C@H]6[C@@H](O3)[C@H]3O[C@H](CC[C@@H]3O[C@H]6[C@H]5O4)CC(=O)C[C@@H]3[C@@H](OC)[C@@H](CCN)O[C@H]3C[C@H]3O[C@@H](CC[C@@H]1O2)C[C@@H](C)C3=C`, the IC50 with HCT-15 worked out at 8.57 nM; in assay [1], 0.17 nM; in assay [2], 47.6 nM; in the assay on DLD-1 it was 4.67 nM. Further, the “Ratio IC50” value in the assay on MES-SA was found to be 288.17.
On the same counts, the results for `C=C1C[C@@H]2CC[C@@]34C[C@H]5O[C@H]6[C@@H](O3)[C@H]3O[C@H](CC[C@@H]3O[C@H]6[C@H]5O4)CC(=O)C[C@@H]3[C@@H](OC)[C@@H](C[C@@H](CN(C)c4ncccn4)OC)O[C@H]3C[C@H]3O[C@@H](CC[C@@H]1O2)C[C@@H](C)C3=C` are 5.4 nM, 2.17 nM, 10.1 nM, 6.9 nM and 4.66.
As for `C=C(C)CN(CC)C[C@H](C[C@H]1O[C@H]2C[C@H]3O[C@@H](CC[C@@H]4O[C@@H](CC[C@@]56C[C@H]7O[C@H]8[C@@H](O5)[C@H]5O[C@H](CC[C@@H]5O[C@H]8[C@H]7O6)CC(=O)C[C@@H]2[C@H]1OC)CC4=C)C[C@@H](C)C3=C)OC`, the IC50 came out at 0.34 nM in the assay on HCT-15 and 0.51 nM with DLD-1.
The like results for `C=C(C)CN(CC)CC[C@H]1O[C@H]2C[C@H]3O[C@@H](CC[C@@H]4O[C@@H](CC[C@@]56C[C@H]7O[C@H]8[C@@H](O5)[C@H]5O[C@H](CC[C@@H]5O[C@H]8[C@H]7O6)CC(=O)C[C@@H]2[C@H]1OC)CC4=C)C[C@@H](C)C3=C` were, in that order, 0.46 nM and 0.61 nM.
On the same counts, the results for `C#CCN(C)C[C@H](C[C@H]1O[C@H]2C[C@H]3O[C@@H](CC[C@@H]4O[C@@H](CC[C@@]56C[C@H]7O[C@H]8[C@@H](O5)[C@H]5O[C@H](CC[C@@H]5O[C@H]8[C@H]7O6)CC(=O)C[C@@H]2[C@H]1OC)CC4=C)C[C@@H](C)C3=C)OC` are 0.19 nM and 0.31 nM.
For `C=C1C[C@@H]2CC[C@@]34C[C@H]5O[C@H]6[C@@H](O3)[C@H]3O[C@H](CC[C@@H]3O[C@H]6[C@H]5O4)CC(=O)C[C@@H]3[C@@H](OC)[C@@H](CCN4CCOCC4)O[C@H]3C[C@H]3O[C@@H](CC[C@@H]1O2)C[C@@H](C)C3=C`, the IC50 in the assay with HCT-15 was determined as 0.16 nM; in the assay on DLD-1, 0.23 nM.
For the molecule `C=C1C[C@@H]2CC[C@@]34C[C@H]5O[C@H]6[C@@H](O3)[C@H]3O[C@H](CC[C@@H]3O[C@H]6[C@H]5O4)CC(=O)C[C@@H]3[C@@H](OC)[C@@H](C[C@@H](CN4CCN(C(=O)OCC)CC4)OC)O[C@H]3C[C@H]3O[C@@H](CC[C@@H]1O2)C[C@@H](C)C3=C`, the IC50 turned out to be 0.08 nM in assay [1] and 3.05 nM in assay [2]. In addition, in the assay with MES-SA, the “Ratio IC50” value was determined as 38.1.
Regarding `C=C1C[C@@H]2CC[C@@]34C[C@H]5O[C@H]6[C@@H](O3)[C@H]3O[C@H](CC[C@@H]3O[C@H]6[C@H]5O4)CC(=O)C[C@@H]3[C@@H](OC)[C@@H](CCN4CCC(C(F)(F)F)CC4)O[C@H]3C[C@H]3O[C@@H](CC[C@@H]1O2)C[C@@H](C)C3=C`, the IC50 with HCT-15 stood at 0.14 nM; with DLD-1 it was 0.22 nM.
